Results published in patent US10143686B2, “Oxidosqualene cyclase as a protein target for anticancer therapeutics” (The Curators of the University of Missouri, priority 2010, dated 2018).

Columns and labels:
OSC = target: T1, OSC (Homo sapiens, UniProt P48449); settings: value in parentheses not explained in the patent; cited from earlier work
T1 sequence (P48449 1-732): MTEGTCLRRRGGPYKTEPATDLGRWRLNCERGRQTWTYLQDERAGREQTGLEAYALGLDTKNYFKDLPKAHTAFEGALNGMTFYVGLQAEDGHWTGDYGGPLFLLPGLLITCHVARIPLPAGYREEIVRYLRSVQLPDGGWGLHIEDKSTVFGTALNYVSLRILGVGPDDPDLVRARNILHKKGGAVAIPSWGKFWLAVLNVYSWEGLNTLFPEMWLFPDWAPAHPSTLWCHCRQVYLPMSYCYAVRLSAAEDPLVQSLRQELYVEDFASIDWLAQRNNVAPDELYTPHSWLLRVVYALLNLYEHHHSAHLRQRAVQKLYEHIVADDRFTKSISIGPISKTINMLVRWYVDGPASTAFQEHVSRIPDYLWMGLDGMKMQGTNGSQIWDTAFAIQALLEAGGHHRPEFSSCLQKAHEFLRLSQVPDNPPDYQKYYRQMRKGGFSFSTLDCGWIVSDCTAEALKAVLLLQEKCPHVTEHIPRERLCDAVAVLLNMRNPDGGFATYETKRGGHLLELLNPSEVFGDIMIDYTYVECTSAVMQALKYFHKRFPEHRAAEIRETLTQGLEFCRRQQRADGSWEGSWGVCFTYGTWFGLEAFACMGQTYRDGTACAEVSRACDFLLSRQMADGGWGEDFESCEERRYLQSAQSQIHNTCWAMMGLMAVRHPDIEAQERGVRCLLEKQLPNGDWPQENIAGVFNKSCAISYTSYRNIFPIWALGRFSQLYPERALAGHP

[1] = test system: T47-D breast cancer cells; experiment: SRB cell viability assay, T47-D; assay type: cell-based; settings: 24 hours, dose-dependent, FIG. 2B
Method: (§1) The sulforhodamine B (SRB) assay was employed to evaluate the effect of OSC inhibitor Ro 48-8071 on viability of breast cancer and normal mammary gland cells with slight modification of the original procedure established at NCI. Accordingly, the cells were seeded in 96-well plates in 100 μl culture medium and incubated overnight at 37° C. with 5% CO2. […] The surviving or adherent cells were fixed in situ by withdrawing the growth medium and adding 100 μl of PBS and 100 μl of 50% cold trichloroacetic acid and then incubating at 4° C. for 1 h. The surviving cells were washed with ice-water, dried at room temperature (RT), and then stained with 50 μl 4% SRB for 8 min at RT. Unbound dye was removed by washing 5 times with cold 1% acetic acid, and the plates were dried at RT. Bound stain was solubilized with 150 μl 10 mM Tris buffer, and absorbance of samples were measured at 520 nm with a SpecTRA MAX 190 microplate reader (Sunnyvale, Calif.). In these experiments on BT-474, T47-D, and AG11132A cell lines, six wells were used for each concentration, and each experiment was performed at least twice.
(§2) The effect of OSC inhibition was evaluated in additional cancer cell lines as well. Cancer cell lines may be purchased from ATCC (Manassas, Va.). The SRB assay has been employed for determination of the inhibitory effects of RO 48-8071 on growth of different cancer cells. Cells were seeded into 96-well plates and incubated overnight at 37° C. with 5% CO2. The culture medium was removed after 24 hours, and cells were washed with DMEM/F12 medium and then treated with various concentrations of RO 48-8071 in 5% FBS culture medium for 24 and 48 hours. Surviving or adherent cells were fixed in situ by withdrawing the growth medium, adding 100 μl PBS and 100 μl 50% trichloroacetic acid and then incubating at 4° C. for one hour. Cells were washed with ice-cold water, dried at room temperature (RT), and then stained with 50 μl 4% SRB for eight minutes at RT. Unbound dye was removed by washing with cold 1% acetic acid for five times, and plates were dried at RT. Bound stain was solubilized with 150 μl 10 mM Tris buffer and absorbance of samples was read at 520 nm with a SpecTRA MAX 190 microplate reader (Molecular Devices, Sunnyvale, Calif.). Six wells were used for each concentration, and each experiment was performed two to three times.
Effect of RO 48-8071 on breast cancer cell line T47-D viability. […] The culture mediums employed 10% FBS DMEM/F12 for culture and 5% FBS DMEM/F12 for treatment.

[2] = test system: BT-474 breast cancer cells; experiment: SRB cell viability assay, BT-474; assay type: cell-based, human; settings: BT-474, 24 hours, dose-dependent, FIG. 2A
Method: as §1, §2
Effect of RO 48-8071 on breast cancer cell line BT-474 viability. […] The culture mediums employed 10% FBS DMEM/F12 for culture and 5% FBS DMEM/F12 for treatment.

## CN(CCCCOc1ccc(C(=O)c2ccc(Br)cc2)cc1)C1CC1
OSC
  IC50: 19 nM

## C=CCC(C)CCCCCCOc1ccc2c(-c3ccc(Br)cc3)nn(C)c2c1 (stereo not shown)
OSC
  IC50: 19.6 nM

## O=C(c1ccc(Cl)cc1)N1CCC(Cc2ccc(C3=NCCO3)cc2)CC1
OSC
  IC50: 36 nM

## O=C1C2CCN(CC2)C1(CO)CO [PRIMA-1, 2,2-bis(hydroxymethyl)-3-quinuclidinone]
[1]
  effect on cell viability (SRB): significantly inhibit the viability
[2]
  effect on cell viability (SRB): significantly inhibit the viability

## CCN(CC)CCO[C@H]1CC[C@@]2(C)C(=CC[C@@H]3[C@@H]2CC[C@]2(C)C(=O)CC[C@@H]32)C1 [U18666A, 3-beta-(2-(diethylamino)ethoxy)androst-5-en-17-one]
[1]
  effect on cell viability (SRB): significantly inhibit the viability
[2]
  effect on cell viability (SRB): significantly inhibit the viability
